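Where inhibition never reached the appropriate level, the endpoint shown equals the highest concentration tested. Otherwise, values were interpolated linearly from a five-concentration, 48-hour dose response in 96-well plates. The concentration for 50% growth inhibition is given as GI50.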 The source made the active and inactive calls. Rule as the data show it: active = GI50 up to about 1.1 µM and inactive = higher.
Assays:
Assay in all cases: NCI anticancer screen, dose series, 48 h
[1] = system: OVCAR-8
[2] = system: UO-31
[3] = system: A549
[4] = system: UACC-257
[5] = system: 786-0
[6] = system: BT-549
[7] = system: DU-145
[8] = system: OVCAR-3
[9] = system: CAKI-1
[10] = system: HL-60
[11] = system: SF-295
[12] = system: SK-MEL-2
[13] = system: NCI-H23
[14] = system: HCC 2998
[15] = system: SR
[16] = system: NCI/ADR-RES
[17] = system: A498
[18] = system: Malme-3M
[19] = system: SF-268

## CC1=NN(c2ccccc2)C2(C1)C(Cl)C(=O)N2c1nc2ccccc2s1 (stereo not given)
[1]
  GI50: 36.1 µM (inactive)
[2]
  GI50: 26.6 µM (inactive)
[3]
  GI50: 35.2 µM (inactive)
[4]
  GI50: 80.2 µM (inactive)
[5]
  GI50: 31.9 µM (inactive)
[6]
  GI50: 34.1 µM (inactive)
[7]
  GI50: 36.2 µM (inactive)
[8]
  GI50: 15.8 µM (inactive)
[9]
  GI50: 66.7 µM (inactive)
[10]
  GI50: 21.1 µM (inactive)
[11]
  GI50: 28.8 µM (inactive)
[12]
  GI50: 23.8 µM (inactive)
[13]
  GI50: 24.2 µM (inactive)
[14]
  GI50: 60.4 µM (inactive)
[15]
  GI50: 22.9 µM (inactive)
[16]
  GI50: 23.9 µM (inactive)
[17]
  GI50: 53 µM (inactive)
[18]
  GI50: 42.2 µM (inactive)
[19]
  GI50: 29.9 µM (inactive)

## O=C(O)c1c(-c2c3ccc(=O)cc-3oc3cc(O)ccc23)cc2ccccc2c1-c1ccccc1
[1]
  GI50: > 100 µM (inactive)
[2]
  GI50: > 100 µM (inactive)
[3]
  GI50: > 100 µM (inactive)
[4]
  GI50: > 100 µM (inactive)
[5]
  GI50: > 100 µM (inactive)
[6]
  GI50: > 100 µM (inactive)
[7]
  GI50: > 100 µM (inactive)
[8]
  GI50: > 100 µM (inactive)
[9]
  GI50: > 100 µM (inactive)
[10]
  GI50: > 74.6 µM (inactive)
[11]
  GI50: > 100 µM (inactive)
[12]
  GI50: > 100 µM (inactive)
[13]
  GI50: > 100 µM (inactive)
[14]
  GI50: > 34 µM (inactive)
[15]
  GI50: > 100 µM (inactive)
[16]
  GI50: > 100 µM (inactive)
[17]
  GI50: > 100 µM (inactive)
[18]
  GI50: > 100 µM (inactive)
[19]
  GI50: > 100 µM (inactive)

## Cc1cccc2c1C(=O)C(C1OC(=O)c3ccccc31)C2 (stereo not given)
[1]
  GI50: > 100 µM (inactive)
[2]
  GI50: > 100 µM (inactive)
[3]
  GI50: > 100 µM (inactive)
[4]
  GI50: > 100 µM (inactive)
[5]
  GI50: > 100 µM (inactive)
[6]
  GI50: > 100 µM (inactive)
[7]
  GI50: > 100 µM (inactive)
[8]
  GI50: > 100 µM (inactive)
[9]
  GI50: > 100 µM (inactive)
[10]
  GI50: > 100 µM (inactive)
[11]
  GI50: > 100 µM (inactive)
[12]
  GI50: > 100 µM (inactive)
[13]
  GI50: > 100 µM (inactive)
[14]
  GI50: > 100 µM (inactive)
[15]
  GI50: > 100 µM (inactive)
[16]
  GI50: > 100 µM (inactive)
[17]
  GI50: > 100 µM (inactive)
[18]
  GI50: > 100 µM (inactive)
[19]
  GI50: 79.6 µM (inactive)

## CC(=O)n1nc(-c2nc3ccccc3nc2Cl)cc1Cl
[1]
  GI50: 26.4 µM (inactive)
[2]
  GI50: 1.39 µM (inactive)
[3]
  GI50: 29.5 µM (inactive)
[4]
  GI50: > 68.1 µM (inactive)
[5]
  GI50: 23.6 µM (inactive)
[6]
  GI50: 5.89 µM (inactive)
[7]
  GI50: 20.6 µM (inactive)
[8]
  GI50: 19.8 µM (inactive)
[9]
  GI50: 3.34 µM (inactive)
[10]
  GI50: 8.02 µM (inactive)
[11]
  GI50: 29.6 µM (inactive)
[12]
  GI50: 25.6 µM (inactive)
[13]
  GI50: 6.24 µM (inactive)
[14]
  GI50: 36.6 µM (inactive)
[15]
  GI50: 3.34 µM (inactive)
[16]
  GI50: 22.3 µM (inactive)
[17]
  GI50: > 71.4 µM (inactive)
[18]
  GI50: 23.4 µM (inactive)
[19]
  GI50: 38.6 µM (inactive)

## COC(=O)[C@](NC(=O)OCc1ccccc1)([C@@H](C)Sc1ccc(C)cc1)C(F)(F)F
[1]
  GI50: 19.5 µM (inactive)
[2]
  GI50: 51.9 µM (inactive)
[3]
  GI50: 34.6 µM (inactive)
[4]
  GI50: 35 µM (inactive)
[5]
  GI50: 59.7 µM (inactive)
[6]
  GI50: 34.9 µM (inactive)
[7]
  GI50: 24.7 µM (inactive)
[8]
  GI50: > 100 µM (inactive)
[9]
  GI50: 57.5 µM (inactive)
[10]
  GI50: 17.4 µM (inactive)
[11]
  GI50: 61.1 µM (inactive)
[12]
  GI50: > 100 µM (inactive)
[13]
  GI50: 19.7 µM (inactive)
[14]
  GI50: > 100 µM (inactive)
[15]
  GI50: 31.1 µM (inactive)
[16]
  GI50: 36 µM (inactive)
[17]
  GI50: > 100 µM (inactive)
[18]
  GI50: 55.7 µM (inactive)
[19]
  GI50: 38.4 µM (inactive)

## C=CCN1C(=O)CC2[C@@H]3CCc4cc(O)ccc4C3CC[C@]2(C)C1=O (stereo not given in full)
[1]
  GI50: > 10 µM (inactive)
[2]
  GI50: > 10 µM (inactive)
[3]
  GI50: > 10 µM (inactive)
[4]
  GI50: > 10 µM (inactive)
[5]
  GI50: > 10 µM (inactive)
[6]
  GI50: > 10 µM (inactive)
[7]
  GI50: > 10 µM (inactive)
[8]
  GI50: > 10 µM (inactive)
[9]
  GI50: > 10 µM (inactive)
[10]
  GI50: > 10 µM (inactive)
[11]
  GI50: > 10 µM (inactive)
[12]
  GI50: > 10 µM (inactive)
[13]
  GI50: > 10 µM (inactive)
[14]
  GI50: > 10 µM (inactive)
[15]
  GI50: > 10 µM (inactive)
[16]
  GI50: > 10 µM (inactive)
[17]
  GI50: > 10 µM (inactive)
[18]
  GI50: > 10 µM (inactive)
[19]
  GI50: > 10 µM (inactive)

## CC1=C(C(=O)OC23CC4CC(CC(C4)C2)C3)C(c2ccccc2OC(F)F)C(C(=O)OC23CC4CC(CC(C4)C2)C3)=C(C)N1 (stereo not given)
[1]
  GI50: > 100 µM (inactive)
[2]
  GI50: > 100 µM (inactive)
[3]
  GI50: > 100 µM (inactive)
[4]
  GI50: > 100 µM (inactive)
[5]
  GI50: > 100 µM (inactive)
[6]
  GI50: > 100 µM (inactive)
[7]
  GI50: > 100 µM (inactive)
[8]
  GI50: 50.5 µM (inactive)
[9]
  GI50: > 100 µM (inactive)
[10]
  GI50: > 100 µM (inactive)
[11]
  GI50: > 100 µM (inactive)
[12]
  GI50: > 100 µM (inactive)
[13]
  GI50: > 100 µM (inactive)
[14]
  GI50: > 100 µM (inactive)
[15]
  GI50: > 100 µM (inactive)
[16]
  GI50: > 100 µM (inactive)
[17]
  GI50: > 100 µM (inactive)
[18]
  GI50: > 100 µM (inactive)
[19]
  GI50: > 100 µM (inactive)

## O=C1c2cc(-c3ccccc3)cnc2S(=O)(=O)N1c1ccc(Br)cc1
[1]
  GI50: 44 µM (inactive)
[2]
  GI50: > 100 µM (inactive)
[3]
  GI50: 18.7 µM (inactive)
[4]
  GI50: > 100 µM (inactive)
[5]
  GI50: 37.6 µM (inactive)
[6]
  GI50: > 100 µM (inactive)
[7]
  GI50: 58.3 µM (inactive)
[8]
  GI50: 47.1 µM (inactive)
[9]
  GI50: 40.4 µM (inactive)
[10]
  GI50: 18.9 µM (inactive)
[11]
  GI50: 20 µM (inactive)
[12]
  GI50: 96.2 µM (inactive)
[13]
  GI50: 63.1 µM (inactive)
[14]
  GI50: 17.8 µM (inactive)
[15]
  GI50: 10.3 µM (inactive)
[16]
  GI50: 83.6 µM (inactive)
[17]
  GI50: > 100 µM (inactive)
[18]
  GI50: 20.3 µM (inactive)
[19]
  GI50: 33.7 µM (inactive)

## O=C1C=CC(=O)c2c(O)c(N3CCN(c4ccccn4)CC3)cc(O)c21
[1]
  GI50: 5.69 µM (inactive)
[2]
  GI50: 8.28 µM (inactive)
[3]
  GI50: 5.85 µM (inactive)
[4]
  GI50: 4.07 µM (inactive)
[5]
  GI50: 7.24 µM (inactive)
[6]
  GI50: 10.7 µM (inactive)
[7]
  GI50: 12.6 µM (inactive)
[8]
  GI50: 4.18 µM (inactive)
[9]
  GI50: 8 µM (inactive)
[10]
  GI50: 3.01 µM (inactive)
[11]
  GI50: 17.5 µM (inactive)
[12]
  GI50: 5.92 µM (inactive)
[13]
  GI50: 3.4 µM (inactive)
[14]
  GI50: 8.73 µM (inactive)
[15]
  GI50: 3.19 µM (inactive)
[16]
  GI50: 2.33 µM (inactive)
[17]
  GI50: 34.4 µM (inactive)
[18]
  GI50: 0.553 µM (active)
[19]
  GI50: 11.9 µM (inactive)

## C=C(C)[C@@]12C[C@H](OC(=O)[C@H](O)[C@@H](NC(=O)c3ccccc3)c3ccccc3)C(C)=C1[C@@H](OC(C)=O)C(=O)[C@@]1(C)C([C@@H]2OC(=O)c2cc(F)cc(F)c2)C2(OC(C)=O)CO[C@@H]2C[C@@H]1O (stereo not given in full)
[1]
  GI50: 0.065 µM (active)
[2]
  GI50: 0.973 µM (active)
[3]
  GI50: 0.0752 µM (active)
[4]
  GI50: 0.0796 µM (active)
[5]
  GI50: 0.0853 µM (active)
[6]
  GI50: 0.194 µM (active)
[7]
  GI50: 0.267 µM (active)
[8]
  GI50: 0.122 µM (active)
[9]
  GI50: 0.525 µM (active)
[10]
  GI50: 0.0269 µM (active)
[11]
  GI50: > 10 µM (inactive)
[12]
  GI50: 0.144 µM (active)
[13]
  GI50: 0.152 µM (active)
[14]
  GI50: 0.0668 µM (active)
[15]
  GI50: 0.169 µM (active)
[16]
  GI50: 1.57 µM (inactive)
[17]
  GI50: 0.164 µM (active)
[18]
  GI50: 0.461 µM (active)
[19]
  GI50: 0.161 µM (active)

— ChEMBL document CHEMBL1201862, “PubChem BioAssay data set” (2004)
